Source: PubChem BioAssay (NCI)
Where “and” joins values, the source holds several entries; their conditions need not be identical. Equal values may be shown once.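 Values below derive from 48-hour exposures of cells grown in 96-well plates, with endpoints linearly interpolated between the two concentrations bracketing the appropriate inhibition level. GI50: concentration for 50% inhibition of growth. TGI denotes the concentration required for complete inhibition of growth.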

How the values were obtained:
Experiment in all cases: DTP human tumour cell line panel, 48 h
SK-MEL-28 melanoma = test system: SK-MEL-28 melanoma
OVCAR-4 ovarian = test system: OVCAR-4 ovarian
DMS 273 small cell lung = test system: DMS 273 small cell lung
DMS 114 small cell lung = test system: DMS 114 small cell lung
EKVX NSCLC = test system: EKVX NSCLC
M14 melanoma = test system: M14 melanoma
MOLT-4 leukemia = test system: MOLT-4 leukemia
HCC-2998 colon = test system: HCC-2998 colon
NCI-H460 lung = test system: NCI-H460 lung
T-47D breast = test system: T-47D breast

| SMILES | TGI (SK-MEL-28 melanoma) | TGI (OVCAR-4 ovarian) | TGI (DMS 273 small cell lung) | TGI (DMS 114 small cell lung) | TGI (EKVX NSCLC) | TGI (M14 melanoma) | TGI (MOLT-4 leukemia) | TGI (HCC-2998 colon) | TGI (NCI-H460 lung) | TGI (T-47D breast) | GI50 (T-47D breast) | GI50 (EKVX NSCLC) | GI50 (SK-MEL-28 melanoma) | GI50 (OVCAR-4 ovarian) | GI50 (DMS 273 small cell lung) | GI50 (DMS 114 small cell lung) | GI50 (M14 melanoma) | GI50 (MOLT-4 leukemia) | GI50 (HCC-2998 colon) | GI50 (NCI-H460 lung) |
| --- | --- | --- | --- | --- | --- | --- | --- | --- | --- | --- | --- | --- | --- | --- | --- | --- | --- | --- | --- | --- |
| BrC1=CC=C2NCCCCCCN=C3C=CC(Br)=CC=C3NCCCCCCN=C2C=C1 | > 25.5 µM | > 25.5 µM | > 25.5 µM | > 25.5 µM | > 25.5 µM | > 25.5 µM | > 25.5 µM | > 25.5 µM | > 25.5 µM | – | – | – | – | – | – | – | – | – | – | – |
| O=S(=O)(O)c1cc(N=Nc2cc(S(=O)(=O)O)c3cccnc3c2O)ccc1/C=C/c1ccc(N=Nc2cc(S(=O)(=O)O)c3cccnc3c2O)cc1S(=O)(=O)O | > 100 µM | > 100 µM | > 100 µM | > 100 µM | > 100 µM | > 100 µM | 48.3 µM | > 100 µM | > 100 µM | > 100 µM | – | – | – | – | – | – | – | – | – | – |
| c1cc(-c2cn[nH]c2)cc(-c2cn[nH]c2)c1 | > 100 µM | > 100 µM | > 100 µM | > 100 µM | 58.6 µM | > 100 µM | > 100 µM | > 100 µM | > 100 µM | – | – | – | – | – | – | – | – | – | – | – |
| Cc1nc(Nc2ccccc2)sc1C(=O)NNc1ccc([N+](=O)[O-])cc1[N+](=O)[O-] | > 100 µM | > 100 µM | > 100 µM | 65.8 µM | 71.2 µM | > 100 µM | 69.7 µM | > 100 µM | > 100 µM | – | – | – | – | – | – | – | – | – | – | – |
| CN(C)CC1(Cc2ccccc2)CCC(Cc2ccccc2)C1=O (configuration not stated) | 26.6 µM | 31 µM | 29 µM | 36.4 µM | 31.8 µM | 23.9 µM | 9.11 µM | 21.4 µM | 30.6 µM | 51.5 µM | – | – | – | – | – | – | – | – | – | – |
| Cn1c2ccccc2c(=O)c2c([N+](=O)[O-])ccc(NCCN)c21 | 29.2 µM | 24.9 µM | 16.9 µM | 26.4 µM | 31 µM | 27.4 µM | 7.95 µM | 21.8 µM | 22.8 µM | – | – | – | – | – | – | – | – | – | – | – |
| COc1cc2c([C@@H](OC(=O)c3ccccc3)c3ccc4c(c3)OCO4)nccc2c(OC)c1OC | – | > 100 µM | > 100 µM | 84.1 µM | > 100 µM | > 100 µM | > 100 µM | > 100 µM | > 100 µM | – | – | – | – | – | – | – | – | – | – | – |
| COC(=O)NC(=O)c1cn(CCCOC(=O)CCCCCCCCC(=O)OCCCn2cc(C(=O)NC(=O)OC)c(=O)[nH]c2=O)c(=O)[nH]c1=O | > 100 µM | > 100 µM | > 100 µM | > 100 µM | > 100 µM | > 100 µM | > 100 µM | > 100 µM | > 100 µM | – | – | – | – | – | – | – | – | – | – | – |
| CN1CCN(CCNc2ccc(CO)c3sc4ccccc4c(=O)c23)CC1 | 9.02 µM | 13.3 µM | 14.1 µM | 22.9 µM | 20.7 µM | 12 µM | 12.3 µM | 18.6 µM | 13.1 µM | 19.4 µM | 3.37 µM | 7.48 µM | – | – | – | – | – | – | – | – |
| CCCCCCCCCCCC(=O)c1c(O)cccc1O | 32 µM | 37.6 µM | 34 µM | 34 µM | 33.6 µM | 33.3 µM | 47.8 µM | 34.3 µM | 42.9 µM | – | – | – | – | – | – | – | – | – | – | – |
| CC1CCP(=O)(c2ccccc2)CC1 (configuration not stated) | > 100 µM | > 100 µM | > 100 µM | > 100 µM | > 100 µM | > 100 µM | > 100 µM | > 100 µM | > 100 µM | – | – | – | – | – | – | – | – | – | – | – |
| c1cc[c]([Sn]([S]c2cccc3cccnc23)([S]c2cccc3cccnc23)[c]2ccccc2)cc1 | 0.532 µM | 0.336 µM | 0.955 µM | 0.374 µM | 0.881 µM | 0.393 µM | 0.542 µM | 0.352 µM | 0.643 µM | – | – | 0.22 µM | 0.196 µM | 0.163 µM | 0.293 µM | 0.164 µM | 0.188 µM | 0.101 µM | 0.17 µM | 0.228 µM |
| COc1cc(Cl)c2c3c(c(C(=O)c4ccccc4)oc13)CCC2 | > 100 µM | > 100 µM | > 100 µM | > 100 µM | > 100 µM | > 100 µM | > 100 µM | > 100 µM | > 100 µM | – | – | – | – | – | – | – | – | – | – | – |
| CCc1cccc(C(C)CC)c1NC(=O)C(=O)C(CC(=O)Nc1ccc(Cl)c(Cl)c1)C(=O)OC (configuration not stated) | > 100 µM | > 100 µM | 55.9 µM | > 100 µM | > 100 µM | > 100 µM | > 100 µM | > 100 µM | > 100 µM | – | – | – | – | – | – | – | – | – | – | – |
| O=C1C(=O)c2ccccc2C(O)=C1CC=C(Cl)Cl | 60.4 µM and 161 µM and > 100 µM | 96.9 µM and 135 µM and > 100 µM | 75.8 µM | 51.7 µM and 70.5 µM | 57.1 µM and 206 µM | > 90.7 µM and 108 µM and > 100 µM | 27.1 µM and 103 µM and > 100 µM | > 80.9 µM and 133 µM and > 100 µM | 49.8 µM and 79.1 µM and 25.5 µM | 49.3 µM and 213 µM and > 100 µM | 11 µM and 20.1 µM | 13.4 µM | 9.5 µM and 16.4 µM | 18.9 µM and 26.9 µM | – | 14.5 µM | 29.4 µM and 9.94 µM | 0.828 µM and 4.68 µM | 15.3 µM and 13.8 µM | 1.66 µM |
| N#CC(C(=N/NC(N)=S)/C(=N/NC(N)=S)C(C#N)c1ccc(Cl)cc1)c1ccc(Cl)cc1 (configuration not stated) | > 100 µM | > 100 µM | > 100 µM | > 100 µM | > 100 µM | > 100 µM | > 100 µM | > 100 µM | > 100 µM | – | – | – | – | – | – | – | – | – | – | – |
